{"source": "patent US12023333B2", "about": "“Phenyl-sulfamoyl.benzoyc acids as ERAP1 modulators” (GREY WOLF THERAPEUTICS LIMITED, priority 2019, dated 2024)", "data": [{"target": "T1, Purified ERAP1(37-941)-10His (ERAP1) (Homo sapiens, UniProt Q9NZ08)", "T1 construct": "Purified ERAP1(37-941)-10His (ERAP1); 10His (C)", "T1 sequence (Q9NZ08 37-941)": "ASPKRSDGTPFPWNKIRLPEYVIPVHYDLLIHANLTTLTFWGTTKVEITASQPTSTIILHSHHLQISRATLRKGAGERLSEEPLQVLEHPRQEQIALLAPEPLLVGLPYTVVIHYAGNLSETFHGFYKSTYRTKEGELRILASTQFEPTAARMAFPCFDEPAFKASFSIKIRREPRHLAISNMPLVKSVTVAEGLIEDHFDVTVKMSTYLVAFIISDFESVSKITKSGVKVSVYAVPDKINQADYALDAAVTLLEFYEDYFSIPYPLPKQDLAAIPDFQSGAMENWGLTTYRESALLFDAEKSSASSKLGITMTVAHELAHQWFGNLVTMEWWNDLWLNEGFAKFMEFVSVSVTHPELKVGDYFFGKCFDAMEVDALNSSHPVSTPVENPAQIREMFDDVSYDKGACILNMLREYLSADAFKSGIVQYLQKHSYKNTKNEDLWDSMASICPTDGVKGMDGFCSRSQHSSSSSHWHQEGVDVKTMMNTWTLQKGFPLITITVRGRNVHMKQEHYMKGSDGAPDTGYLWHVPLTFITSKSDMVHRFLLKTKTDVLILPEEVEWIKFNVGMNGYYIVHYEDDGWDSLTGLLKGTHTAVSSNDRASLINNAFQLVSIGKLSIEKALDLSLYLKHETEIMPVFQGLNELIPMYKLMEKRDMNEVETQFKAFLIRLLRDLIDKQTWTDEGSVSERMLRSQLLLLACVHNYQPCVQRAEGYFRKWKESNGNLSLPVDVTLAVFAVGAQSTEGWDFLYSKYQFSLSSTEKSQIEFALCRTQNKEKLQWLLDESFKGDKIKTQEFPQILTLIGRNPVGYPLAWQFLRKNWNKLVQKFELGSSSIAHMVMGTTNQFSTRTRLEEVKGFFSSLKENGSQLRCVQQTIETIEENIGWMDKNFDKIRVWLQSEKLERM", "test": "ERAP1 mediated hydrolysis of an amide substrate measured in a biochemical system (10-mer decapeptide substrate)", "conditions": "10-mer substrate, 23° C. for 1 h, excitation 279 nm and emission 355 nm; read-out: IC50 vs Decapeptide WRVYEKC(Dnp)ALK-acid (where Dnp is Dinitrophenyl maleimide) (10-mer)", "experimental": "Biological Assay 1: ERAP1 Mediated Hydrolysis of an Amide Substrate Measured in a Biochemical System\n1× Assay buffer (AB): 25 mM Bis-tris propane, 0.05% w/v Hydroxypropylmethylcellulose pH 7.75 made with Optima grade water\nDecapeptide WRVYEKC(Dnp)ALK-acid (where Dnp is Dinitrophenyl maleimide) (10-mer) L-Leucine 7-amido-4-methylcoumarin (L-AMC)\n12.5 μL ERAP1 enzyme in 1×AB was combined with 250 nL test compound in DMSO. 12.5 μL of either 240 μM L-AMC in 1×AB or 100 μM 10-mer in 1×AB was added to the reaction and incubated at 23° C. for 1 h. For detection, plates were read at excitation 365 nm and emission 442 nm (L-AMC) or excitation 279 nm and emission 355 nm (10-mer). Compound IC50 was determined using a 4 parameter equation.", "units": {"IC50": "nM"}, "values": [{"smiles": "CS(=O)(=O)c1ccc(-c2ccc(C#N)s2)c(NS(=O)(=O)c2cc(C(=O)O)ccc2C2CC2)c1", "note": "[Example 124, 3-(N-(2-(5-cyanothiophen-2-yl)-5-(methylsulfonyl)phenyl)sulfamoyl)-4-cyclopropylbenzoic acid]", "IC50": "< 500"}, {"smiles": "N#Cc1cc(NS(=O)(=O)c2cc(C(=O)O)ccc2C2CC2)c(-c2cccc(F)c2)cc1Cl", "note": "[Example 133, 3-(N-(5-chloro-4-cyano-3′-fluoro-[1,1′-biphenyl]-2-yl)sulfamoyl)-4-cyclopropylbenzoic acid]", "IC50": "< 500"}, {"smiles": "N#Cc1ccc(-c2cccnn2)c(NS(=O)(=O)c2cc(C(=O)O)ccc2C2CC2)c1", "note": "[Example 165, 3-(N-(5-cyano-2-(pyridazin-3-yl)phenyl)sulfamoyl)-4-cyclopropylbenzoic acid]", "IC50": "< 500"}, {"smiles": "N#Cc1ccc(-c2ccccn2)c(NS(=O)(=O)c2cc(C(=O)O)ccc2C2CC2)c1", "note": "[Example 83, 3-(N-(5-cyano-2-(pyridin-2-yl)phenyl)sulfamoyl)-4-cyclopropylbenzoic acid]", "IC50": "< 500"}, {"smiles": "N#Cc1ccc(-c2ccccc2)c(NS(=O)(=O)c2cc(C(=O)O)ccc2C2CC2)c1", "note": "[Example 96, 3-(N-(4-cyano-[1,1′-biphenyl]-2-yl)sulfamoyl)-4-cyclopropylbenzoic acid]", "IC50": "< 500"}, {"smiles": "Cn1ncnc1-c1cc(NS(=O)(=O)c2cc(C(=O)O)ccc2C2CC2)c(-c2ccccn2)cc1Cl", "note": "[Example 189, 3-(N-(4-chloro-5-(1-methyl-1,2,4-triazol-5-yl)-2-(pyridin-2-yl)phenyl)sulfamoyl)-4-cyclopropylbenzoic acid]", "IC50": "< 500"}, {"smiles": "CCc1ccc(C(=O)O)cc1S(=O)(=O)Nc1cc(C#N)ccc1-c1cccc(C#N)c1", "note": "[Example 42, 3-(N-(3′,4-dicyano-[1,1′-biphenyl]-2-yl)sulfamoyl)-4-ethylbenzoic acid]", "IC50": "< 500"}, {"smiles": "CCc1ccc(C(=O)O)cc1S(=O)(=O)Nc1cc(S(C)(=O)=O)ccc1-n1cccc1", "note": "[Example 108, 4-ethyl-3-(N-(5-(methylsulfonyl)-2-(pyrrol-1-yl)phenyl)sulfamoyl)benzoic acid]", "IC50": "< 500"}, {"smiles": "CCc1ccc(C(=O)O)cc1S(=O)(=O)Nc1cc(S(C)(=O)=O)ccc1-c1ccc(F)s1", "note": "[Example 106, 4-ethyl-3-(N-(2-(5-fluorothiophen-2-yl)-5-(methylsulfonyl)phenyl)sulfamoyl)benzoic acid]", "IC50": "< 500"}, {"smiles": "CCc1ccc(C(=O)O)cc1S(=O)(=O)Nc1cc(C(F)(F)F)ccc1-c1ccccn1", "note": "[Example 37, 4-ethyl-3-(N-(2-(pyridin-2-yl)-5-(trifluoromethyl)phenyl)sulfamoyl)benzoic acid]", "IC50": "< 500"}, {"smiles": "COc1ccc(C(=O)O)cc1S(=O)(=O)Nc1cc(C(F)(F)F)ccc1-c1cnco1", "note": "[Example 25, 4-methoxy-3-(N-(2-(oxazol-5-yl)-5-(trifluoromethyl)phenyl)sulfamoyl) benzoic acid]", "IC50": "< 5000"}, {"smiles": "N#Cc1cc(NS(=O)(=O)c2cc(C(=O)O)ccc2C2CC2)c(-c2nccs2)cc1Cl", "note": "[Example 192, 3-(N-(4-chloro-5-cyano-2-(thiazol-2-yl)phenyl)sulfamoyl)-4-cyclopropylbenzoic acid]", "IC50": "< 500"}, {"smiles": "O=C(O)c1ccc(C2CC2)c(S(=O)(=O)Nc2cc(C(F)(F)F)ccc2-c2ccc(C3CC3)s2)c1", "note": "[Example 114, 4-cyclopropyl-3-(N-(2-(5-cyclopropylthiophen-2-yl)-5-(trifluoromethyl)phenyl)sulfamoyl)benzoic acid]", "IC50": "< 500"}, {"smiles": "N#Cc1ccc(-c2ccccn2)c(NS(=O)(=O)c2cc(C(=O)O)ccc2C2CCC2)c1", "note": "[Example 168, 3-(N-(5-cyano-2-(pyridin-2-yl)phenyl)sulfamoyl)-4-cyclobutylbenzoic acid]", "IC50": "< 500"}, {"smiles": "O=C(O)c1ccc(C2CC2)c(S(=O)(=O)Nc2cc(-c3ccns3)c(F)cc2-n2cccc2)c1", "note": "[Example 198, 4-cyclopropyl-3-(N-(4-fluoro-5-(isothiazol-5-yl)-2-(pyrrol-1-yl)phenyl)sulfamoyl)benzoic acid]", "IC50": "< 500"}, {"smiles": "CCc1ccc(C(=O)O)cc1S(=O)(=O)Nc1cc(C(F)(F)F)ccc1-c1ccc[nH]1", "note": "[Example 69, 3-(N-(2-(pyrrol-2-yl)-5-(trifluoromethyl)phenyl)sulfamoyl)-4-ethylbenzoic acid]", "IC50": "< 500"}, {"smiles": "N#Cc1cc(NS(=O)(=O)c2cc(C(=O)O)ccc2C2CC2)c(-c2ccsn2)cc1Cl", "note": "[Example 180, 3-(N-(4-chloro-5-cyano-2-(isothiazol-3-yl)phenyl)sulfamoyl)-4-cyclopropylbenzoic acid]", "IC50": "< 500"}, {"smiles": "O=C(O)c1ccc(C2CC2)c(S(=O)(=O)Nc2cc(-n3cnnn3)ccc2-n2cccc2)c1", "note": "[Example 208, 3-(N-(2-(pyrrol-1-yl)-5-(tetrazol-1-yl)phenyl)sulfamoyl)-4-cyclopropylbenzoic acid]", "IC50": "< 500"}, {"smiles": "COc1ccc(C(=O)O)cc1S(=O)(=O)Nc1cc(C(F)(F)F)ccc1-c1ccc(F)cc1", "note": "[Example 12, 3-(N-(4′-fluoro-4-(trifluoromethyl)-[1,1′-biphenyl]-2-yl)sulfamoyl)-4-methoxybenzoic acid]", "IC50": "< 500"}, {"smiles": "CCc1ccc(C(=O)O)cc1S(=O)(=O)Nc1cc(C#N)ccc1-c1cccc(F)c1", "note": "[Example 41]", "IC50": "< 500"}, {"smiles": "COc1ccc(C(=O)O)cc1S(=O)(=O)Nc1cc(C(F)(F)F)ccc1-c1ccc(C#N)s1", "note": "[Example 125, 3-(N-(2-(5-cyanothiophen-2-yl)-5-(trifluoromethyl)phenyl)sulfamoyl)-4-methoxybenzoic acid]", "IC50": "< 500"}, {"smiles": "O=C(O)c1ccc(C2CC2)c(S(=O)(=O)Nc2cc(-n3cnnn3)c(Cl)cc2-n2cccc2)c1", "note": "[Example 206, 3-(N-(4-chloro-2-(pyrrol-1-yl)-5-(tetrazol-1-yl)phenyl)sulfamoyl)-4-cyclopropylbenzoic acid]", "IC50": "< 500"}, {"smiles": "Cc1oncc1-c1ccc(-c2cccnc2)c(NS(=O)(=O)c2cc(C(=O)O)ccc2C2CC2)c1", "note": "[Example 167, 4-cyclopropyl-3-(N-(5-(5-methylisoxazol-4-yl)-2-(pyridin-3-yl)phenyl)sulfamoyl)benzoic acid]", "IC50": "< 500"}, {"smiles": "N#Cc1ccc(-c2cccc(F)n2)c(NS(=O)(=O)c2cc(C(=O)O)ccc2C2CC2)c1", "note": "[Example 153, 3-(N-(5-cyano-2-(6-fluoropyridin-2-yl)phenyl)sulfamoyl)-4-cyclopropylbenzoic acid]", "IC50": "< 500"}, {"smiles": "Cc1ccc(-c2ccc(C(F)(F)F)cc2NS(=O)(=O)c2cc(C(=O)O)ccc2C2CC2)s1", "note": "[Example 86, 4-cyclopropyl-3-(N-(2-(5-methylthiophen-2-yl)-5-(trifluoromethyl)phenyl)sulfamoyl)benzoic acid]", "IC50": "< 500"}, {"smiles": "Cn1nccc1-c1cc(NS(=O)(=O)c2cc(C(=O)O)ccc2C2CC2)c(-n2cccc2)cc1F", "note": "[Example 199, 4-cyclopropyl-3-(N-(4-fluoro-5-(1-methylpyrazol-5-yl)-2-(pyrrol-1-yl)phenyl)sulfamoyl)benzoic acid]", "IC50": "< 500"}, {"smiles": "Cc1sncc1-c1ccc(-n2cccc2)c(NS(=O)(=O)c2cc(C(=O)O)ccc2C2CC2)c1", "note": "[Example 150, 4-cyclopropyl-3-(N-(5-(5-methylisothiazol-4-yl)-2-(pyrrol-1-yl)phenyl)sulfamoyl)benzoic acid]", "IC50": "< 500"}, {"smiles": "COc1ccc(C(=O)O)cc1S(=O)(=O)Nc1cc(C(F)(F)F)c(Cl)cc1-n1cccc1", "note": "[Example 158, 3-(N-(4-chloro-2-(pyrrol-1-yl)-5-(trifluoromethyl)phenyl)sulfamoyl)-4-methoxybenzoic acid]", "IC50": "< 500"}, {"smiles": "COc1ccc(C(=O)O)cc1S(=O)(=O)Nc1cc(C(F)(F)F)ccc1-n1cccn1", "note": "[Example 30, 3-(N-(2-(pyrazol-1-yl)-5-(trifluoromethyl)phenyl)sulfamoyl)-4-methoxybenzoic acid]", "IC50": "< 5000"}, {"smiles": "N#Cc1ccc(-n2cccc2)c(NS(=O)(=O)c2cc(C(=O)O)ccc2C2CC2)c1", "note": "[Example 109, 3-(N-(5-cyano-2-(pyrrol-1-yl)phenyl)sulfamoyl)-4-cyclopropylbenzoic acid]", "IC50": "< 500"}, {"smiles": "COc1ccc(C(=O)O)cc1S(=O)(=O)Nc1cc(C(F)(F)F)ccc1-c1ccc(Cl)s1", "note": "[Example 87, 3-(N-(2-(5-chlorothiophen-2-yl)-5-(trifluoromethyl)phenyl)sulfamoyl)-4-methoxybenzoic acid]", "IC50": "< 500"}, {"smiles": "COc1ccc(C(=O)O)cc1S(=O)(=O)Nc1cc(C(F)(F)F)ccc1-c1ccc(C#N)cc1", "note": "[Example 16, 3-(N-(4′-cyano-4-(trifluoromethyl)-[1,1′-biphenyl]-2-yl)sulfamoyl)-4-methoxybenzoic acid]", "IC50": "< 5000"}, {"smiles": "COc1ccc(C(=O)O)cc1S(=O)(=O)Nc1cc(C(F)(F)F)ccc1-c1ccccc1C(C)C", "note": "[Example 51, 3-(N-(2′-isopropyl-4-(trifluoromethyl)-[1,1′-biphenyl]-2-yl)sulfamoyl)-4-methoxybenzoic acid]", "IC50": "< 5000"}, {"smiles": "O=C(O)c1ccc(C2CC2)c(S(=O)(=O)Nc2cc(C(F)(F)F)ccc2-c2ccsn2)c1", "note": "[Example 151, 4-cyclopropyl-3-(N-(2-(isothiazol-3-yl)-5-(trifluoromethyl)phenyl)sulfamoyl)benzoic acid]", "IC50": "< 500"}, {"smiles": "CS(=O)(=O)c1ccc(-c2cccs2)c(NS(=O)(=O)c2cc(C(=O)O)ccc2C2CC2)c1", "note": "[Example 74, 4-cyclopropyl-3-(N-(5-(methylsulfonyl)-2-(thiophen-2-yl)phenyl)sulfamoyl) benzoic acid]", "IC50": "< 500"}, {"smiles": "CCc1ccc(C(=O)O)cc1S(=O)(=O)Nc1cc(C#N)ccc1-n1cccc1", "note": "[Example 107, 3-(N-(5-cyano-2-(pyrrol-1-yl)phenyl)sulfamoyl)-4-ethylbenzoic acid]", "IC50": "< 500"}]}]}
